Patent US5925369A, “Bis alkanoyl esters of carnitine having bactericidal, fungicidal and antiprotozoal activity” (priority 1996, dated 1999)

Columns and labels:
Trichomonas vaginalis = assay: MIC on protozoa (Trichomonas vaginalis); assay type: cell-based; details: Metronidazole resistant strains T. vaginalis SS-20 and SS-22 (25 and 50)
Description: Protozoal suspensions are prepared from 24-hour cultures grown at 37° C. and 5% CO2 in DIAMOND T.Y.M. broth supplemented with 10% heat-inactivated FCS.
The suspensions are adjusted, in the same medium, to a final concentration of 2.5×10^5 cells/ml in each well of a 96-well microtiter plate. Substance dilutions (0.3 log) are added to the suspensions in order to have a range of final concentrations from 0.19 to 100 mcg/ml. Microtiters are then incubated at 37° C. and 5% CO2 for 24 hours. MIC is referred to as the minimal concentration inhibiting either protozoa or flagella or undulating membrane motility (Cf. JULIANO C., MARTINOTTI M. G., […] P., In vitro effect of microtubule inhibitors on T. vaginalis, Microbiologia, 8:31-42, 1985. LOVGREN T. and SALMELA I., Invitro sensitivity of T. vaginalis and C. albicans to chemotherapeutic agents, Acta Path. Microbiol. Scand.. 86:155-158, 1978).

[1] = test system: T. mentagrophytes IDI D1049; assay: Antifungal activity in experimental Tinea pedis in the guinea-pig paw; assay type: in vivo, Hartley guinea-pig; details: for A (clinical sign score) / D (clinical sign score) / E (clinical sign score): scale 0-3
Excerpt: Twelve male Hartley guinea-pig (C. RIVER), weighing 350-400 gr, have been utilized (3 animals per experimental group).
One clinical isolate (Tricophyton mentagrophytes IDI D 1049, from Immacolata Dermatological Institute of Rome) was utilized.
Microaleuriospores were first harvested by scraping from a 7-day fungal culture grown in Potato dextrose agar, and then resuspended in Sabouraud broth with 0.5% Tween 80.
After washing, the spores were standardized in sterile saline to yield a final concentration of 1.0×10^8 spores/ml.
Each group included 3 animals, and only the left hind paw was inoculated. For the 2 control groups, 3 animals in total were used, as both hind paws of each animal were inoculated.
Filter paper discs (12-mm diameter and 0.3-mm thickness) were covered with aluminum foil in the lower part to prevent the inoculum spreading. This filter was then sticked to a 1×3-cm piece of biadesive plaster, which adhered to a gauze wrapped around the paw.
The filter paper disc was then wetted with 100 μl of the infective suspension, and subsequently fixed to the guinea-pig paw.
The animal paw was tied up with bandage and plaster, and then left in these conditions for 7 days.
Seven days after infection, the infected areas were uncovered and the type of lesion was graded according to an arbitrary scale, as follows:
These "clinical" signs were examined again on days +14, +21, and +31 (day of sacrifice of animals). Three days following the first observation of the type of lesion (day +10), treatments with the differrent formulations were started, and they went on for 20 days (once a day). Two days following the last treatment (day +31), animals were sacrificed and plantar areas of the paws were dissected into 10 parts for each paw.
These sections were plated onto Mycobiotic agar supplemented with Penicillin G and Streptomicin (100 mcg/ml). Volumes of 50 μl of both antibiotics were then added to the plantar sections to prevent any bacterial growth that might interfere with the growth of T. mentagrophytes in the samples under examination.
The data obtained were expressed as the number of microbiologically sterile cutaneous sections over the total examined sections.

[2] = 1.5%, 20 days once a day, day +31

| Structure (SMILES) | MIC of Metronidazole (Trichomonas vaginalis) [mg/L] | MIC (Trichomonas vaginalis; Trichomonas vaginalis, 24 h, read-out: MIC of Metronidazole) [mg/L] | eradication of infection ([1]; 1.5% Miconazole) | A (clinical sign score) ([1]; 1.5%, 7th day) | D (clinical sign score) ([1]; 1.5%, 7th day) | E (clinical sign score) ([1]; 1.5%, 7th day) | A (clinical sign score) ([1]; 1.5%, 14th day) | D (clinical sign score) ([1]; 1.5%, 14th day) | E (clinical sign score) ([1]; 1.5%, 14th day) | A (clinical sign score) ([1]; 1.5%, 21st day) | D (clinical sign score) ([1]; 1.5%, 21st day) | E (clinical sign score) ([1]; 1.5%, 21st day) | A (clinical sign score) ([1]; 1.5%, 31st day) | D (clinical sign score) ([1]; 1.5%, 31st day) | E (clinical sign score) ([1]; 1.5%, 31st day) | sterile samples (%) [1, 2] [%] | sterile samples (n = 30), number over total [1, 2] |
| --- | --- | --- | --- | --- | --- | --- | --- | --- | --- | --- | --- | --- | --- | --- | --- | --- | --- |
| Cc1ncc([N+](=O)[O-])n1CCO [Metronidazole] | 50 | 25 | – | – | – | – | – | – | – | – | – | – | – | – | – | – | – |
| Clc1ccc(COC(Cn2ccnc2)c2ccc(Cl)cc2Cl)c(Cl)c1 (centres unmarked) [Miconazole, reference compound] | – | – | capable of eradicating infection from all treated samples | 0 | 0 | 0 | 0 | 0 | 0 | 0 | 0 | 0 | 0 | 0 | 0 | 100 | 30/30 |
